Key:
[1] = target: T1, hERG channel (Homo sapiens, UniProt Q12809); test: hERG IC20 assay; type: cell-based; settings: human, hERG IC20 assay
Source text: The methods to determine the hERG IC20 values was described in Industrializing electrophysiology: HT automated patch clamp on SyncroPatch® 96 using instant frozen cells. Polonchuk L., Methods Mol Biol. 2014; 1183:81-92. (doi: 10.1007/978-1-4939-1096-0_5.) PMID:25023303
QT prolongation is a cardiovascular risk caused by drug candidates which inhibit the hERG channel (human ether a go-go). A sufficient safety margin between the hERG IC20 value and the free plasma concentration necessary to achieve the envisaged thereapeutic effects is desired (ICH. The nonclinical evaluation of the potential for delayed ventricular repolarization (QT interval prolongation) by human pharmaceuticals (S7B), issued as CPMP/ICH/423/02, adopted by CHMP in May 2005 (http://www.ich.org/cache/compo/276-254-1.html; Redfern W S, Carlsson L, Davis A S, Lynch W G, MacKenzie I, Palethorpe S, Siegl P K, Strang I, Sullivan A T, Wallis R, Camm A J, Hammond T G. Relationships between preclinical cardiac electrophysiology, clinical QT interval prolongation and torsade de pointes for a broad range of drugs: evidence for a provisional safety margin in drug development. Cardiovasc Res. 2003 Apr. 1; 58(1):32-45.)). Reducing the activity against efflux transporters expressed at the blood-brain-barrier such as P-glycoprotein P-gp, might result in reduction of the free plasma concentration by optimizing brain penetration.

[2] = target: BACE1 (Homo sapiens, UniProt P56817); test: BACE1 cell-free assay (BACE1 enzyme assay); type: biochemical
Source text: BACE1 Cell-Free Assay (BACE1 Enzyme Assay)
The determination of BACE1 activity can be either measured by using an enzymatic cell-free fluorescence assay (BACE1 cell free, table 2) or by a whole cell assay using HEK293 APP cells (Cellular Aβ-lowering, table 2). Both assays are suitable to determine BACE1 inhibition.

[3] = system: Plasma Aβ40; test: Cynomolgus monkey plasma Aβ40 determination; type: in vivo, Cynomolgus monkey (Macacaca fascicularis)
Source text: Cynomolgus Monkey (Macacaca fascicularis) Single Dose PK Study and Plasma Aβ40 Determination
Blood and plasma collection will always be performed in the treatment cage. The animal care keeper grabs either one arm or one leg through the bars. The hairs are shaved for better visibility of the vein. The blood vessel is squeezed, the vein is punctured by using a butterfly and blood is taken. Once enough blood has been withdrawn a cotton swab is placed over the injection site and the needle is gently removed. Bleeding is stopped by pressing a cotton swab on the wound. Plasma samples were taken between 5 min and 48 h.
Blood is transferred into a labeled EDTA-K2 Eppendorf tube and the sample is mixed by inverting the tubes several times. Blood is stored at −20° C.
Aβ determination in cynomolgous plasma samples was done after solid phase extraction (Lanz, T. et al., J. of Neuroscience Methods, 2006, 157:71-81). Frozen plasma samples were thawed in a 25° C. waterbath. […] Once samples were dried, they were stored at −80° C. or measured immediately. […]
Aβ concentration was determined following a modified protocol from Perkin-Elmer with a commercially available antibody against the N-terminal part of cynomolgus Aβ (6E10, Signet IG-39340) and an in-house C-terminal specific anti-Aβ40 antibody (BAP-24, Brockhaus M. et al., J. Neuroreport, 1998, 9:1481-1486). […]

[4] = target: T1, hERG channel; test: hERG patch liner assay; type: cell-based
Source text: The methods to determine the hERG IC20 patch liner values were described in Toward a New Gold Standard for Early Safety: Automated Temperature-Controlled hERG Test on the PatchLiner. Polonchuk L., Front Pharmacol. 2012 Jan. 26; 3:3. (doi: 10.3389/fphar.2012.00003. eCollection 2012.) PMID:22303293

T1 sequence (Q12809 whole entry): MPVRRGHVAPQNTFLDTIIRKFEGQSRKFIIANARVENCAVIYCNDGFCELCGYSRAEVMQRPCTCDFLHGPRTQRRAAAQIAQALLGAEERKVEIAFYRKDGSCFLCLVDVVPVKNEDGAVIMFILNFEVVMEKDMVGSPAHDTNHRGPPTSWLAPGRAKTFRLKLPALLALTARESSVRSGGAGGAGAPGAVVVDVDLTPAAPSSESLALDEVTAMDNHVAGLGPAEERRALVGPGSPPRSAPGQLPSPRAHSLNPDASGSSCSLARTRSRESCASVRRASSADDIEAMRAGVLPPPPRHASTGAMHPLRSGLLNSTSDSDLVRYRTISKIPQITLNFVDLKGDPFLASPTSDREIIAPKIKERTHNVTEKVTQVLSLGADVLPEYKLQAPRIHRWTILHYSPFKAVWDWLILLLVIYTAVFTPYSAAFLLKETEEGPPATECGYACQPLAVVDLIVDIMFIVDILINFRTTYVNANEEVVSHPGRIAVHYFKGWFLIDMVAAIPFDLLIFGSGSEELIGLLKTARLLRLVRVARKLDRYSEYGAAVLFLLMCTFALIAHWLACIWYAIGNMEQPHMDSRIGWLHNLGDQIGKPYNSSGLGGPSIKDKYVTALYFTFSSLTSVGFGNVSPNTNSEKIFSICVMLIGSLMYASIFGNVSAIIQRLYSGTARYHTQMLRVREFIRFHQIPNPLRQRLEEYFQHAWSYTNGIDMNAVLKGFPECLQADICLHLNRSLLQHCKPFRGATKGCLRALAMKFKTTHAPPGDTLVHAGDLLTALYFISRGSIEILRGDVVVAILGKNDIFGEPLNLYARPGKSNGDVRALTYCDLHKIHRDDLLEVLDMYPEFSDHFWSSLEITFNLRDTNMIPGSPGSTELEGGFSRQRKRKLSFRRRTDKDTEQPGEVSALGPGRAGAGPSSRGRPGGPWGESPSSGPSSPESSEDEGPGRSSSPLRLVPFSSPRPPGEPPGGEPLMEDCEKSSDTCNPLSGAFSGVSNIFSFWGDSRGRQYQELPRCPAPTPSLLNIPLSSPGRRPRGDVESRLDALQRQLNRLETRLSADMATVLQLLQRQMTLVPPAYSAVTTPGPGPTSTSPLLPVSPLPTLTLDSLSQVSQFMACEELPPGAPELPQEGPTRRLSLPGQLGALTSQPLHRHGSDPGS
Chain of BACE1 (P56817 46-501): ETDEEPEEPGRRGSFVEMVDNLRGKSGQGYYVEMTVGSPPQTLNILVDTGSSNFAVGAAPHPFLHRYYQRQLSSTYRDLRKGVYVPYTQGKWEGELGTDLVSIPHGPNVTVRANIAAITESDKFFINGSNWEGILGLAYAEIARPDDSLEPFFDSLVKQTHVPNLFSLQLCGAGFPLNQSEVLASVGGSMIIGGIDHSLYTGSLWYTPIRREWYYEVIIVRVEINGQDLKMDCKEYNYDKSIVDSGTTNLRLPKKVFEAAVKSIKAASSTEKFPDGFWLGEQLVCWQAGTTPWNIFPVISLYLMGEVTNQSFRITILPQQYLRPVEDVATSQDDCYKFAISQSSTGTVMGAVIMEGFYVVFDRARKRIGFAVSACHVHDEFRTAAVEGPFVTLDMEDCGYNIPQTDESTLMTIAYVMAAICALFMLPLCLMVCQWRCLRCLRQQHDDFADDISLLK

## Cc1cc(C#N)cnc1C(=O)Nc1ccc(F)c([C@@]2(C)N=C(N)O[C@H](C(F)(F)F)[C@@H]2F)n1 [Example 1, N-(6-((4R,5R,6S)-2-amino-5-fluoro-4-methyl-6-(trifluoromethyl)-5,6-dihydro-4H-1,3-oxazin-4-yl)-5-fluoropyridin-2-yl)-5-cyano-3-methylpicolinamide]
[1]; instant frozen cells (hERG channel; cell line not named)
  IC20: > 1000 nM
[1]
  IC20: > 1000 nM
[2]
  IC50: 36 nM
[3]; 24 h post dose
  Plasma Aβ-lowering 0.2 mg/kg at 24 h: 57%
[3]; 48 h post dose
  Plasma Aβ-lowering 0.2 mg/kg at 48 h: 50%
[4]; at approximately 80% reduction of Aβ40 in rat CSF
  improvement of the hERG safety margin versus comparator 6: 17 fold
[4]; human, hERG patchliner assay
  IC20: 2340 nM
